# Read-outs that look alike come from different tables or passages of the source.
# How the values were obtained:
# recombinant human HDAC9 = recombinant human HDAC9 (Homo sapiens, UniProt Q9UKV0); assay: Recombinant human HDAC9 activity assay; format: biochemical; conditions: 1 mM, recombinant human isoform
# recombinant human HDAC1 = recombinant human HDAC1 (Homo sapiens, UniProt Q13547); assay: Recombinant human HDAC1 activity assay; format: biochemical; conditions: for inhibition of HDAC1: 1 mM, recombinant human isoform
# recombinant human HDAC5 = recombinant human HDAC5 (Homo sapiens, UniProt Q9UQL6); assay: Recombinant human HDAC5 activity assay; format: biochemical; conditions: 1 mM, recombinant human isoform
# human SLC5A8 [1] = molecular target: T1, human SLC5A8 (Homo sapiens, UniProt Q8N695); assay: Inhibition of [14C]nicotinate uptake via human SLC5A8 expressed in HRPE cells; format: cell-based
# T1 sequence (Q8N695 1-610): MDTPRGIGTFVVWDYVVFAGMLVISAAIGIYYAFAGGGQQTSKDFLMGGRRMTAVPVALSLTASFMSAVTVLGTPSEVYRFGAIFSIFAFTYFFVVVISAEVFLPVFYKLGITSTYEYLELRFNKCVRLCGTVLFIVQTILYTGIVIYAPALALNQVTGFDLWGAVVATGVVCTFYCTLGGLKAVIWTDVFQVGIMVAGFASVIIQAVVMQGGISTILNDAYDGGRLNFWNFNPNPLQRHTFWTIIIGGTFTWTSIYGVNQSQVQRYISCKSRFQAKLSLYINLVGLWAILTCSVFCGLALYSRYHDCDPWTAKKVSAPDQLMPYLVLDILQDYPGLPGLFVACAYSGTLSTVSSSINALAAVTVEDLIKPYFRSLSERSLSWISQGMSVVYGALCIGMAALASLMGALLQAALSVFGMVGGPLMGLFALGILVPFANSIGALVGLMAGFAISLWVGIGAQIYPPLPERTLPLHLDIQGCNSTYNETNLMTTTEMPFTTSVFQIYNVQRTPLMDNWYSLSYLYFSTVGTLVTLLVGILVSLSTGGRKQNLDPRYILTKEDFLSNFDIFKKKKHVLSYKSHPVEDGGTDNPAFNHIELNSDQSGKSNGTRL
# recombinant human HDAC8 = molecular target: T2, recombinant human HDAC8 (Homo sapiens, UniProt Q9BY41); assay: Recombinant human HDAC8 activity assay; format: biochemical; conditions: 1 mM, recombinant human isoform
# T2 sequence (Q9BY41 1-377): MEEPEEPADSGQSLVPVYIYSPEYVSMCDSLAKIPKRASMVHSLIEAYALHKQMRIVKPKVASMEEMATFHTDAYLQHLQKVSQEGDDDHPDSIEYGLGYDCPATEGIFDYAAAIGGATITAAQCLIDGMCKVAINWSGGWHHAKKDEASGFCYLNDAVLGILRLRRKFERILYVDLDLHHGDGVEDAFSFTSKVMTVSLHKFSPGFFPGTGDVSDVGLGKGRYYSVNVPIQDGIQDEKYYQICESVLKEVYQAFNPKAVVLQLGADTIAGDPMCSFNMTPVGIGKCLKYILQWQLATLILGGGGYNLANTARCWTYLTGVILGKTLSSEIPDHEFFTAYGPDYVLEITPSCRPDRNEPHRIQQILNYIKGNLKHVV
# human SLC5A8 [2] = molecular target: T1, human SLC5A8; assay: Substrate-induced currents in X. laevis oocytes expressing human SLC5A8; format: cell-based; conditions: for inward currents in SLC5A8-expressing oocytes: 1 mM compound, in the presence of NaCl, not detectable in absence of Na+, -50 mV; for K0.5 (substrate concentration for half-maximal current): saturation kinetics of substrate-induced currents, human SLC5A8 oocytes
# recombinant human HDAC6 = molecular target: T3, recombinant human HDAC6 (Homo sapiens, UniProt Q9UBN7); assay: Recombinant human HDAC6 activity assay; format: biochemical; conditions: 1 mM, recombinant human isoform
# T3 sequence (Q9UBN7 1-1215): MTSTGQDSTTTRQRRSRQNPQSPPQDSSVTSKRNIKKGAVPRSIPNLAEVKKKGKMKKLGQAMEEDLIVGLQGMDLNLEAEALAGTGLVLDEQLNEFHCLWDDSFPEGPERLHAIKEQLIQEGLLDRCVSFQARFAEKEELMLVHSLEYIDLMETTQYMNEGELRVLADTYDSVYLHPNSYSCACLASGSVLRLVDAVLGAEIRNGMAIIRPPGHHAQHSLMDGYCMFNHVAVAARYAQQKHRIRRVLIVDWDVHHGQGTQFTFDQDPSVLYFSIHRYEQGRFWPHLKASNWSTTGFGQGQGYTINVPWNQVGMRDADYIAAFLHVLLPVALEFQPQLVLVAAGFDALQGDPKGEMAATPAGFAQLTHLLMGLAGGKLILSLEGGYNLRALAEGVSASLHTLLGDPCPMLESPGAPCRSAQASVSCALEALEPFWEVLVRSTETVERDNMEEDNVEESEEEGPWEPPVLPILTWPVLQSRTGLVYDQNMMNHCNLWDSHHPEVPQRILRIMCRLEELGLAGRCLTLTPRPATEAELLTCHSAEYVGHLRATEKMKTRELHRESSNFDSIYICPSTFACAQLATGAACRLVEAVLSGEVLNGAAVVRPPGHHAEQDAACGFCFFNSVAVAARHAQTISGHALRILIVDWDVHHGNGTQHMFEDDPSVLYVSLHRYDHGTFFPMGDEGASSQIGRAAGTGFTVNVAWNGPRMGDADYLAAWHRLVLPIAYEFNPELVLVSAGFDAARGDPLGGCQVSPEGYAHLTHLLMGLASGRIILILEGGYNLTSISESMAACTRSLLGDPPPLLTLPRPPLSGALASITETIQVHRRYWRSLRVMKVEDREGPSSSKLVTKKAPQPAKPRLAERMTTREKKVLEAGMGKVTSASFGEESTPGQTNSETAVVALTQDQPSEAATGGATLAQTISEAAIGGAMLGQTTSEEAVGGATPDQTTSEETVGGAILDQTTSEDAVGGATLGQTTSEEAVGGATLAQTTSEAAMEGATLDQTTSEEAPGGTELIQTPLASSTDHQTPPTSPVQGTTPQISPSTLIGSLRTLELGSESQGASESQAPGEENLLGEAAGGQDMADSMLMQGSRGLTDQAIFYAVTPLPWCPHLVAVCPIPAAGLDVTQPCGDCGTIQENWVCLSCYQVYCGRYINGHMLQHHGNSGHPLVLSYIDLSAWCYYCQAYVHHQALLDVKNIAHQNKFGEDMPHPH
# HDACs in MCF7 cells = assay: HDAC activity in lysates of MCF7 cells cultured with compound; conditions: vector-transfected MCF7 cells cultured with 1 mM compound
# MCF7 cells [3] = assay: Apoptosis of MCF7 cells by FACS analysis
# recombinant human HDAC2 = recombinant human HDAC2 (Homo sapiens, UniProt Q92769); assay: Recombinant human HDAC2 activity assay; format: biochemical; conditions: 1 mM, recombinant human isoform
# MCF7 cells [4] = assay: Colony formation assay in MCF7 cells; conditions: vector-transfected MCF7 cells, increasing concentrations, two weeks
# recombinant human HDAC3 = recombinant human HDAC3 (Homo sapiens, UniProt O15379); assay: Recombinant human HDAC3 activity assay; format: biochemical; conditions: for inhibition of HDAC3: 1 mM, recombinant human isoform
# mouse Slc5a8 = molecular target: T4, mouse Slc5a8 (Mus musculus, UniProt Q8BYF6); assay: Inhibition of [14C]nicotinate uptake via mouse Slc5a8 expressed in HRPE cells; format: cell-based; conditions: read-out: inhibition of nicotinate uptake
# T4 sequence (Q8BYF6 1-611): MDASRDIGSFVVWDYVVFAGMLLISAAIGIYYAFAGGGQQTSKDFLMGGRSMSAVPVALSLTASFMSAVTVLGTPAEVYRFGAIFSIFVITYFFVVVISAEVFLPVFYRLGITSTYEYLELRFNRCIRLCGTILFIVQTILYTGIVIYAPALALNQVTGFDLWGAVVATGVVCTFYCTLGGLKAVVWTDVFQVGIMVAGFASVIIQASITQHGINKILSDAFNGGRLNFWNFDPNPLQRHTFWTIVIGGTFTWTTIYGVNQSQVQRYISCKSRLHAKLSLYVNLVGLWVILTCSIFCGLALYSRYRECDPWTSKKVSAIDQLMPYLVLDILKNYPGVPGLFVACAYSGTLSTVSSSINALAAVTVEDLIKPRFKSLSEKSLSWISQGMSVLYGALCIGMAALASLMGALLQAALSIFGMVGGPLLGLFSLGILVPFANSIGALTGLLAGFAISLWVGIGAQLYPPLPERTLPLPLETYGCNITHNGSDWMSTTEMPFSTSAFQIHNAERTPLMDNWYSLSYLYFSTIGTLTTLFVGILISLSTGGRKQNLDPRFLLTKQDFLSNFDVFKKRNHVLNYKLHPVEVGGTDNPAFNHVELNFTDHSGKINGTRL
# rat Slc5a8 = molecular target: T5, rat Slc5a8 (Rattus norvegicus, UniProt D3Z9E5); assay: Inhibition of [14C]nicotinate uptake via rat Slc5a8 expressed in HRPE cells; format: cell-based; conditions: read-out: inhibition of nicotinate uptake
# T5 sequence (D3Z9E5 1-611): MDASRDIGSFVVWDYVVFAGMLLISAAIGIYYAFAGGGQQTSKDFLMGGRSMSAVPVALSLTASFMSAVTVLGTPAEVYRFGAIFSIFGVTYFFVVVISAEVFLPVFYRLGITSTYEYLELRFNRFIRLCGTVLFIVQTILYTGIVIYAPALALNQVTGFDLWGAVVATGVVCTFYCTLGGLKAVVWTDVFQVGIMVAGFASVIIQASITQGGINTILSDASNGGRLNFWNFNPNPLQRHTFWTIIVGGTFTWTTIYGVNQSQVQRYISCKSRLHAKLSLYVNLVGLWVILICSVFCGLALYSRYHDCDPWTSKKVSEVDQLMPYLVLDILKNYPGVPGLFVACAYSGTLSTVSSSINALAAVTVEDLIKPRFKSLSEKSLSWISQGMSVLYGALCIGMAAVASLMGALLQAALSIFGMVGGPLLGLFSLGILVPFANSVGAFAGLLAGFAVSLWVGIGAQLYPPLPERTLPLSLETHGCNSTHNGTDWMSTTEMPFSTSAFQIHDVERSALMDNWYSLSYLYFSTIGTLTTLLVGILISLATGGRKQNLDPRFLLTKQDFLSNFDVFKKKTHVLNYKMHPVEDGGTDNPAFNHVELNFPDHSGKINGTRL
# [5] = Na+-activation kinetics of 3-bromopyruvate-induced currents
# [6] = MCF7 cells ectopically expressing SLC5A8, 1 mM
# [7] = vector-transfected MCF7 cells, 1 mM
# Sequence of recombinant human HDAC1 (Q13547 whole entry, canonical isoform): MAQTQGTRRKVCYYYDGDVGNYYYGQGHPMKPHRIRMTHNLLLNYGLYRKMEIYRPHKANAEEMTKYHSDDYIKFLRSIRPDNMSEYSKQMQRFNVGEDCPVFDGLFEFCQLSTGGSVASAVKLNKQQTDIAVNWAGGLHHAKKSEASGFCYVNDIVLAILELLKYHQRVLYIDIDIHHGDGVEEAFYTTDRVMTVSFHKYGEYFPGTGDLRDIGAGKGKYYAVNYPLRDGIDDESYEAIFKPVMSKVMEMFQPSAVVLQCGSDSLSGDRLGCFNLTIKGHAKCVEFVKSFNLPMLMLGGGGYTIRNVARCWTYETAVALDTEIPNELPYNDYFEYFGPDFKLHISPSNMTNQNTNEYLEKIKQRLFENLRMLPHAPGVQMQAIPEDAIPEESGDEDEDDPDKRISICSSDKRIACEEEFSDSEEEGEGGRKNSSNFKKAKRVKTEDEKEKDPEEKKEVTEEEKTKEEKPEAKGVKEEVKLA
# Sequence of recombinant human HDAC3 (O15379 whole entry, canonical isoform): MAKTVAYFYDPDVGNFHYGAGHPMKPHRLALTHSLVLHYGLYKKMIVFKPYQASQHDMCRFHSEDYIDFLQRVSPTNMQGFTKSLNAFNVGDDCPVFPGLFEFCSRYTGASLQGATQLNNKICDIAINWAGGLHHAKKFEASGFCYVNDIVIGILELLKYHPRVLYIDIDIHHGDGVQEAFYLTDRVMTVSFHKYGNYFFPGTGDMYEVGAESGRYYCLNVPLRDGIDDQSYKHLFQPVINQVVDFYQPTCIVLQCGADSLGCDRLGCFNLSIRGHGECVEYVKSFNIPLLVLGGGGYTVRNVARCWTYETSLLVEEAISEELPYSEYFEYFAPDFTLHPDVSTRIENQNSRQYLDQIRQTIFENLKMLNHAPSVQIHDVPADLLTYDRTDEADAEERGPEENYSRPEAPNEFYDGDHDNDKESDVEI
# Sequence of recombinant human HDAC3 (Q9Y618 395-489 partner limits assumed): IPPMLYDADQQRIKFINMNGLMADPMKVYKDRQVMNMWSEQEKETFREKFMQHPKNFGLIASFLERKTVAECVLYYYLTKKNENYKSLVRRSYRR
# Sequence of recombinant human HDAC9 (Q9UKV0 whole entry, canonical isoform): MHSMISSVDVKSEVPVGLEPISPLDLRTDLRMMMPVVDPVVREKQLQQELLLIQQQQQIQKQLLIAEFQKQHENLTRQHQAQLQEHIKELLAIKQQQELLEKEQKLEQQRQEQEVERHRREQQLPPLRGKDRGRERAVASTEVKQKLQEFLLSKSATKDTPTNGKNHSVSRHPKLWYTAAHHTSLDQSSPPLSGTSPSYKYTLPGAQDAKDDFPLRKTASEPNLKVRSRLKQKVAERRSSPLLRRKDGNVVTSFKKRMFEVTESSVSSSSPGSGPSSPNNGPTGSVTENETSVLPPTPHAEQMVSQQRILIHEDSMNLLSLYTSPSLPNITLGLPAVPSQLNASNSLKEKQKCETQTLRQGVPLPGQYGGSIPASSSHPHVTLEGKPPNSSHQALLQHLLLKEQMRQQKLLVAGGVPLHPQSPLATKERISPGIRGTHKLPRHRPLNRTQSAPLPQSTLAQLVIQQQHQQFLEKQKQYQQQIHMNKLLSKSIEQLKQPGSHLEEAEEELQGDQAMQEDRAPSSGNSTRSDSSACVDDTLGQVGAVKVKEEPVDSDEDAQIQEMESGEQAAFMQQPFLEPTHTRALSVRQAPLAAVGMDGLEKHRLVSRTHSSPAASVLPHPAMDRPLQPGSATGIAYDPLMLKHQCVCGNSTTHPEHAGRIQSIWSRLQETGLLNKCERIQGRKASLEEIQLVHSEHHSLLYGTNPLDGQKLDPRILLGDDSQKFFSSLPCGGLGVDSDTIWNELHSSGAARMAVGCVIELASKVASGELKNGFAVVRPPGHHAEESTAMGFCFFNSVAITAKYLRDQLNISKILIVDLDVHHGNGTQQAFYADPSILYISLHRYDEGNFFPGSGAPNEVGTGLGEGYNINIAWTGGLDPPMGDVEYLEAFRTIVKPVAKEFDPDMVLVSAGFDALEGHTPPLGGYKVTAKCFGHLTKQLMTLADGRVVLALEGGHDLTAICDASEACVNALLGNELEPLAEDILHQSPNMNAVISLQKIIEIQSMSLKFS
# Sequence of recombinant human HDAC2 (Q92769 whole entry, canonical isoform): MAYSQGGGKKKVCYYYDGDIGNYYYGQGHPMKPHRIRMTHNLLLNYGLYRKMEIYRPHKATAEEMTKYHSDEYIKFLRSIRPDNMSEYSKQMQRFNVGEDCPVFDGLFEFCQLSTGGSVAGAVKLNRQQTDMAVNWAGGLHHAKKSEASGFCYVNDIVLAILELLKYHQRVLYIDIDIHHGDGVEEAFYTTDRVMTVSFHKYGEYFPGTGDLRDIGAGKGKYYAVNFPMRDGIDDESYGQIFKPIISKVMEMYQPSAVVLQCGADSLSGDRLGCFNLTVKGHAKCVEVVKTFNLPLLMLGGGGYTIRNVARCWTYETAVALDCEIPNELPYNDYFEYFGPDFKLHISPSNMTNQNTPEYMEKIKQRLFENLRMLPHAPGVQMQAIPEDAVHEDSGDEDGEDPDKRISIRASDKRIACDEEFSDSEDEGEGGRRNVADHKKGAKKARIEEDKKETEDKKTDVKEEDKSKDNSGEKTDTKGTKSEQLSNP
# Sequence of recombinant human HDAC5 (Q9UQL6 whole entry, canonical isoform): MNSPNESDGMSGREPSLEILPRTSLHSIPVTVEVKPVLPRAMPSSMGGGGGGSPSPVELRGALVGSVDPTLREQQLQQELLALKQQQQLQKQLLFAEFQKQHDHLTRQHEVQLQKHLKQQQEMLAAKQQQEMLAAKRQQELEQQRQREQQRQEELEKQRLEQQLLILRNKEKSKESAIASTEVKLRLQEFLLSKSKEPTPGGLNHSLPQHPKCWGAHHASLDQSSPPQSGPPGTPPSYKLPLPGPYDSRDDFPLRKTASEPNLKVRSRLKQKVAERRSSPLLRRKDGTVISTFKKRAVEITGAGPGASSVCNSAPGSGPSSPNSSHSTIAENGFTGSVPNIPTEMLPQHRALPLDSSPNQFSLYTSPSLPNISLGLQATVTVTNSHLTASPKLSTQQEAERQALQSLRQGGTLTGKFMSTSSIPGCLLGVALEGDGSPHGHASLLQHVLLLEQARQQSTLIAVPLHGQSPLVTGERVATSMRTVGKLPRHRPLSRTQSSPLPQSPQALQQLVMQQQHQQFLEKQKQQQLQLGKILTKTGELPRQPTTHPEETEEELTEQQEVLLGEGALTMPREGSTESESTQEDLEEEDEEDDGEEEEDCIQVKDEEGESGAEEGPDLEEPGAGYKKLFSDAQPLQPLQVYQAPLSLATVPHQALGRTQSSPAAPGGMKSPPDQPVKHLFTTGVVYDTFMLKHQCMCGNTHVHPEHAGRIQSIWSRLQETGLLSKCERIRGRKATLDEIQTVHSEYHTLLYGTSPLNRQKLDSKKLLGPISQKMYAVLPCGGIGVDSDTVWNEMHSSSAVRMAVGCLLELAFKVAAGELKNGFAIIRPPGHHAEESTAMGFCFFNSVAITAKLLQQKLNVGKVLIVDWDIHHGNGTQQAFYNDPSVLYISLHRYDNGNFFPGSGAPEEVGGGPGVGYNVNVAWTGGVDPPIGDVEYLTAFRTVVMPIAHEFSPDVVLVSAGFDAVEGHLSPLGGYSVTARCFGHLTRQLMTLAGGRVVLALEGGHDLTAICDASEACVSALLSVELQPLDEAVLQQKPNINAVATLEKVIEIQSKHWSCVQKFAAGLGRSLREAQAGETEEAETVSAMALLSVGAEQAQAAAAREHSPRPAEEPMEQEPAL
structure (smiles),measurement,setting,value
O=C(O)C(=O)CBr [3-bromopyruvate],effect on HDAC9,recombinant human HDAC9,no effect
same,inhibition of HDAC1,recombinant human HDAC1,marked inhibition
same,effect on HDAC5,recombinant human HDAC5,no effect
same,IC50,"human SLC5A8 [1]; read-out: IC50 for the inhibition of human SLC5A8 (nicotinate uptake), human SLC5A8 in HRPE cells, [14C]nicotinate 15 μM, 15 min, means ± S.E.",32 ± 9 µM
same,effect on HDAC8,recombinant human HDAC8,no effect
same,inward currents in SLC5A8-expressing oocytes,human SLC5A8 [2],induced inward currents
same,current induced relative to current induced by pyruvate,"human SLC5A8 [2]; 1 mM, pyruvate-induced current taken as 100%, four oocytes",approximately 50%
same,Hill coefficient for the activation of transport by Na+,human SLC5A8 [2]; [5],1.4 ± 0.2
same,K0.5 value for Na+ to activate the transport process,human SLC5A8 [2]; [5],32 ± 4 mM
same,transportable substrate or blocker of SLC5A8,human SLC5A8 [2]; conclusion from Na+-dependent inward currents at 1 mM,transportable substrate
same,K0.5 (substrate concentration for half-maximal current),human SLC5A8 [2],495 ± 25 µM
same,inhibition of HDAC6,recombinant human HDAC6,"inhibited to a lesser, but significant, extent"
same,change in HDAC activity,HDACs in MCF7 cells,no change in HDAC activity
same,apoptosis (FACS),MCF7 cells [3]; [6],induced marked apoptosis
same,"apoptosis (FACS), added effect after siRNA silencing","MCF7 cells [3]; MCF7 cells with HDAC1 or HDAC3 silenced by siRNA, then 3-bromopyruvate 1 mM 48 h",did not have any added effect
same,apoptosis (FACS) after siRNA silencing,"MCF7 cells [3]; MCF7 cells with HDAC2 silenced by siRNA, 3-bromopyruvate 1 mM 48 h",did not cause apoptosis
same,apoptosis (FACS),MCF7 cells [3]; [7],not affected
same,inhibition of HDAC2,recombinant human HDAC2,"inhibited to a lesser, but significant, extent"
same,colony formation (cell viability),MCF7 cells [4],affected only minimally
same,inhibition of HDAC3,recombinant human HDAC3,marked inhibition
CC(=O)C(=O)O [pyruvate],IC50,recombinant human HDAC1,30 ± 14 µM
same,inhibition of HDAC1,recombinant human HDAC1,inhibited HDAC1 and HDAC3 preferentially
same,inhibition at 1000 µM,mouse Slc5a8,75%
same,IC50,human SLC5A8 [1],652 ± 139 µM
same,inhibition at 1000 µM,"human SLC5A8 [1]; HRPE, read-out: inhibition of nicotinate uptake",55%
same,inward currents in SLC5A8-expressing oocytes,human SLC5A8 [2],induced inward currents
same,substrate-induced current,"human SLC5A8 [2]; 1 mM, four oocytes, NaCl buffer",215 ± 45 nA
same,K0.5 (substrate concentration for half-maximal current),human SLC5A8 [2],312 ± 16 µM
same,inhibition at 1000 µM,rat Slc5a8,60%
same,change in HDAC activity,HDACs in MCF7 cells,no change in HDAC activity
same,apoptosis (FACS),MCF7 cells [3]; [6],induced marked apoptosis
same,apoptosis (FACS),MCF7 cells [3]; [7],not affected
same,colony formation (cell viability),MCF7 cells [4],affected only minimally
same,IC50,recombinant human HDAC3,40 ± 11 µM
same,inhibition of HDAC3,recombinant human HDAC3,inhibited HDAC1 and HDAC3 preferentially

# — PMC2782911 (Cancer, 2009)
